Laboratory results: paper PMC11047580, “Design and Synthesis of Novel Amino and Acetamidoaurones with Antimicrobial Activities” (Antibiotics, 2024)
In brackets after ≈: the same amount, converted by molar mass.

Legend:
[1] = tested on: B. subtilis ATCC6633; experiment: MIC assay; assay type: cell-based, Bacillus subtilis; settings: Bacillus subtilis, ATCC6633; two-fold serial dilutions in liquid media; n = 2–3
[2] = tested on: S. aureus ATCC6538P; experiment: MIC assay; assay type: cell-based, Staphylococcus aureus; settings: Staphylococcus aureus, ATCC6538P; two-fold serial dilutions in liquid media; n = 2–3
[3] = tested on: E. coli ATCC8739; experiment: MIC assay; assay type: cell-based, Escherichia coli; settings: two-fold serial dilutions in liquid media, n = 2–3; for MIC: Escherichia coli, ATCC8739
[4] = tested on: P. aeruginosa ATCC9027; experiment: MIC assay; assay type: cell-based, Pseudomonas aeruginosa; settings: Pseudomonas aeruginosa, ATCC9027; two-fold serial dilutions in liquid media; n = 2–3
[5] = tested on: M. smegmatis ATCC700084; experiment: MIC assay (REMA); assay type: cell-based, Mycobacterium smegmatis; settings: Mycolicibacterium smegmatis, ATCC700084, REMA microdilution, n = 2–3
[6] = tested on: C. albicans DSM10697; experiment: MIC assay; assay type: cell-based, Candida albicans; settings: two-fold serial dilutions in liquid media, n = 2–3; for MIC: Candida albicans, DSM10697
[7] = Cytotoxic assay (resazurin); settings: human, A498 kidney epithelial cells
[8] = Cytotoxic assay (resazurin); settings: human, BEAS-2B normal lung epithelial cells
[9] = Cytotoxic assay (resazurin); settings: human, Caco-2
[10] = Cytotoxic assay (resazurin); settings: human, HaCaT normal epidermal keratinocytes
[11] = Cytotoxic assay (resazurin); settings: human, HepG2 liver cells
[12] = Cytotoxic assay (resazurin); settings: human, IMR-90 normal lung fibroblasts
[13] = Cytotoxic assay, summary over the six human cell types; settings: human, 48 h exposure
[14] = tested on: human cells (A498, BEAS-2B, Caco-2, HaCaT, HepG2, IMR-90); experiment: as above; settings: for Highest TI: highest CC50 on human cells divided by MIC on S. aureus; for Lowest TI: lowest CC50 on human cells divided by MIC on S. aureus
[15] = tested on: B. subtilis, S. aureus, E. coli, P. aeruginosa, M. smegmatis, C. albicans; experiment: First MIC screening, summary over the species of Table 2; assay type: cell-based; settings: discussion of the first screening
[16] = Highest CC50, highest of the six human cell types
[17] = Lowest CC50, lowest of the six human cell types
[18] = Mean CC50, mean over the six human cell types

| Compound | MIC [1] | MIC [2] | MIC [3] | MIC [4] | MIC [5] | MIC [6] | MIC C. albicans DSM10697 [6] | melting point | CC50 at 48 h [7] | CC50 at 48 h [8] | CC50 at 48 h [9] | CC50 at 48 h [10] | CC50 at 48 h [11] | CC50 at 48 h [12] | CC50 at 48 h [13, 16] | CC50 at 48 h [13, 17] | Highest TI [14] | Lowest TI [14] | activity against tested micro-organisms (in words) [15] | further results |
| --- | --- | --- | --- | --- | --- | --- | --- | --- | --- | --- | --- | --- | --- | --- | --- | --- | --- | --- | --- | --- |
| Nc1ccc2c(c1)C(=O)/C(=C/c1cccc(Oc3ccccc3)c1)O2 [Compound 16, (Z)-5-amino-2-(3-phenoxybenzylidene)benzofuran-3(2H)-one] | 25 µM (≈ 8.23 µg/mL) | 25 µM (≈ 8.23 µg/mL) | 25 µM (≈ 8.23 µg/mL) | > 100 µM | 50 µM (≈ 16.5 µg/mL) | > 100 µM | inactive | 145.6 °C | 452 µM | 130 µM | 132 µM | 80.4 µM | 398 µM | 116 µM | 452 µM | 80.4 µM | 18.0 | 3.2 | – | CC50 at 48 h [13, 18]: 218 µM |
| Nc1ccc2c(c1)C(=O)/C(=C/c1cccc(OCc3ccccc3)c1)O2 [Compound 12, (Z)-5-amino-2-(3-(benzyloxy)benzylidene)benzofuran-3(2H)-one] | 25 µM (≈ 8.58 µg/mL) | 100 µM (≈ 34.3 µg/mL) | > 100 µM | > 100 µM | 50 µM (≈ 17.2 µg/mL) | > 100 µM | inactive | 132.6 °C | 152 µM | 74.6 µM | 112 µM | 51.3 µM | 343 µM | 42.4 µM | 343 µM | 42.4 µM | 3.4 | 0.4 | – | MIC E. coli ATCC8739 [3]: inactive; CC50 at 48 h [13, 18]: 129 µM |
| CC(=O)Nc1ccc2c(c1)C(=O)/C(=C/c1cccc(OC(C)C)c1)O2 [Compound 19, (Z)-N-(2-(3-isopropoxybenzylidene)-3-oxo-2,3-dihydrobenzofuran-5-yl)acetamide] | > 100 µM | > 100 µM | > 100 µM | 25 µM (≈ 8.43 µg/mL) | > 100 µM | > 100 µM | – | – | – | – | – | – | – | – | – | – | – | – | weak or no activity | – |
| CC(=O)Nc1ccc2c(c1)C(=O)/C(=C/c1ccccc1OC(C)C)O2 [Compound 18, (Z)-N-(2-(2-isopropoxybenzylidene)-3-oxo-2,3-dihydrobenzofuran-5-yl)acetamide] | > 100 µM | > 100 µM | > 100 µM | > 100 µM | > 100 µM | > 100 µM | – | – | – | – | – | – | – | – | – | – | – | – | weak or no activity | – |
| CC(C)Oc1cccc(/C=C2\Oc3ccc(N)cc3C2=O)c1 [Compound 22, (Z)-5-amino-2-(3-isopropoxybenzylidene)benzofuran-3(2H)-one] | > 100 µM | > 100 µM | > 100 µM | > 100 µM | > 100 µM | > 100 µM | – | 198.4 °C | – | – | – | – | – | – | – | – | – | – | weak or no activity | – |
| CC(C)Oc1ccccc1/C=C1\Oc2ccc(N)cc2C1=O [Compound 21, (Z)-5-amino-2-(2-isopropoxybenzylidene)benzofuran-3(2H)-one] | > 100 µM | > 100 µM | > 100 µM | > 100 µM | > 100 µM | > 100 µM | – | – | – | – | – | – | – | – | – | – | – | – | weak or no activity | – |
| CC(=O)Nc1ccc2c(c1)C(=O)/C(=C/c1ccc(Oc3ccccc3)cc1)O2 [Compound 15, (Z)-N-(3-oxo-2-(4-phenoxybenzylidene)-2,3-dihydrobenzofuran-5-yl)acetamide] | 50 µM (≈ 18.6 µg/mL) | 100 µM (≈ 37.1 µg/mL) | > 100 µM | > 100 µM | 50 µM (≈ 18.6 µg/mL) | > 100 µM | inactive | 213.5 °C | 146 µM | 110 µM | 137 µM | > 500 µM | > 500 µM | > 500 µM | > 500 µM | 110 µM | >5 | 1.0 | – | MIC E. coli ATCC8739 [3]: inactive |
| CC(=O)Nc1ccc2c(c1)C(=O)/C(=C/c1ccc(OCc3ccccc3)cc1)O2 [Compound 11, (Z)-N-(2-(4-(benzyloxy)benzylidene)-3-oxo-2,3-dihydrobenzofuran-5-yl)acetamide] | > 100 µM | > 100 µM | > 100 µM | > 100 µM | > 100 µM | > 100 µM | – | 212.8 °C | – | – | – | – | – | – | – | – | – | – | – | – |
| CC(=O)Nc1ccc2c(c1)C(=O)/C(=C/c1cccc(F)c1)O2 [Compound 25, (Z)-N-(2-(3-fluorobenzylidene)-3-oxo-2,3-dihydrobenzofuran-5-yl)acetamide] | 50 µM (≈ 14.9 µg/mL) | > 100 µM | > 100 µM | > 100 µM | 100 µM (≈ 29.7 µg/mL) | > 100 µM | – | 243.6 °C | – | – | – | – | – | – | – | – | – | – | – | – |
